Reference: patent publication US20220064214A1, “NOVEL PEPTIDES AND USES THEREOF” (CENNA BIOSCIENCES INC., priority 2019, published 2022)
“And” between values parts separate entries of the source, which are not always exact repeats. Equal entries are not always repeated. Marks after values point to notes of the source that are not given here. Ends that are not written are not given here.

Experiments:
Aβ40 = experiment: Efficacy in reducing Aβ40 in rat plasma (ELISA); format: in vivo; details: 10 mg/kg SC; for reduction in Aβ40: rat plasma; for Percent Decrease in Aβ 40 in Rat Plasma: mean of 3 rats, negative = decrease
Procedure: (§1) Blood was collected through jugular vein cannulas, and the samples were collected into tubes with K2EDTA. After centrifuging at a temperature of 2 to 8° C. at 4,000×g for 5 minutes, the resulting plasma was split into equal aliquots, frozen, and stored at −60 to −80° C. One aliquot was for PK analysis and the other was for Aβ analysis (see Example 4).
Rats (n=3 per peptide) were administered with P8, 8M1D, or 8M2D (10 mg/kg) subcutaneously, and plasma were collected at 0, 6, 12, and 24 h after dosing and Aβ40 analysis was carried out by ELISA (Invitrogen).

[1] = Metabolic stability of peptides in fresh human plasma (LC/MS/MS); format: in vitro ADME
Procedure: P8, 8M1, and 8M1D were generated according to Example 1 with purities ranging from 98.0% to 99.0%. A primary 1.00 mM stock solution was prepared in either acetonitrile or acetonitrile:water (1:1, v/v) for each peptide. A 0.200 mM working stock was made from the primary stock in acetonitrile:water (1:1, v/v), which was used for the reactions. The primary and working stock solutions were stored at −20° C. when not in use, and they were kept at room temperature for as short a time as possible when in use. Fresh human plasma were maintained by adding sodium heparin as an anticoagulant.
The incubation procedures started when 5.00 μL of 0.2 mM (working stock solutions) of different peptides were added to 0.995 mL of fresh human plasma in a 1.7-mL snap tube. After 3, 8 and 24 hours of incubation, duplicate 50.0 μL aliquots of plasma were removed and placed into extraction tubes containing 150 μL of methanol, which served to quench any reactions, and thus incubations were ended. For each time point, the aliquotes were immediately extracted by vortex mixing and centrifugation. Resulting supernates were stored in High-Performance Liquid Chromatography (HPLC) vials and analyzed by LC/MS/MS after all samples were extracted. Valacyclovir was used as a positive control.
LC/MS/MS analysis of the incubation solutions was conducted by initial separation of the test article peaks using chromatography prior to detection by the mass spectrometer. The LC/MS system was comprised of a HPLC coupled with a TQS-Micro or Quattro Premier (Waters, Milford, Mass.). The mobile phase was nebulized using heated nitrogen in a Z spray source/interface set to electrospray in positive ionization mode for the peptides. The ionized peptides were detected using Tandem Quadropole Mass Spectrometry (MS/MS). The data was acquired using MassLynx (Waters, Milford, Mass.).
HPLC for the peptides and Valacyclovir control were performed with no guard columns, with a flow rate at 0.3 mL/min, with column temperature at 40° C., and autosampler temperature at 10° C. The column for peptides was MacMod ACE 2 Excel C18PFP, 100×2.1-mm, 2.0 μm, and the column for the control was Waters Atlantis T3, 150×2.1-mm, 5.0 μm. The injection loop and volumn for peptides were 50.0 μL and 20.0 μL respectively, and the ones for controls were 20.0 μL and 2.00 μL. For the Mass Spectrometer for the peptides and the Valacyclovir control, the source temperature was set to be 150° C., desolvation temperature was set to be 350° C., and polarity was set to be positive mode of electrospray ionization. Other parameters in HPLC and Mass Spectrometer are shown in Table 2.1, Table 2.2 and Table 3 below.

[2] = Pharmacokinetics study in rats, CSF; format: in vivo; design: CSF concentration, Mean IV / CSF concentration, Mean SC: unit not given here; details: rat; for CSF concentration, Mean IV: 10 mg/kg IV; for CSF concentration, Mean SC: 10 mg/kg SC
Procedure: (§2) An in-vivo study was carried out in rats to determine the pharmacokinetics (PK) of peptides P8, 8M1D and 8M2D in plasma and CSF. Each peptide was assessed through two dosage routes, intravenous (IV) and subcutaneous (SC). Three rats were assigned to each dose group with each peptide. Total of twelve rats per peptide were used.
CSF collection was performed by first anesthetizing animals at specified time points (see Table 5) with a mixture of 80 mg/kg ketamine and 8 mg/kg xylazine. The depth of anesthesia was monitored by toe pinches. CSF was collected via the cisterna magna (˜0.05 mL), and it was split into equal aliquots, frozen, and stored at −60 to −80° C.

[3] = Delivery to brain in transgenic mice (brain concentrations); format: in vivo; details: SC administration
Procedure: Critical to the development of any therapeutic for diseases like AD is the requirement that it can be delivered to the brain. Delivery to brain and efficacy of P8 and 8M2D in reducing Aß was analyzed in the transgenic mice described in Section 6.3 above. […]

Aβ = experiment: Reduction of Aβ in retinal cells differentiated from iPSC derived from Alzheimer's disease patients; format: cell-based
From the text: The accumulation of Aβ in the retina was studied in this example. Retinal cells were differentiated from induced pluripotent stem (iPSC) cells derived from Alzheimer's disease patients.

[4] = Pharmacokinetics study in rats, plasma; format: in vivo; details: rat; for plasma concentration: individual rats
Procedure: as §2, §1

Substance: DEEEDEEL-OH [P8, DEEEDEEL, reference compound]
- reduction in Aβ40 (Aβ40; 12 hr post dosing): about 22%
- reduction in Aβ40 (Aβ40; 24 h post dosing): about 13%
- Percent Decrease in Aβ 40 in Rat Plasma (Aβ40; 0 h): 0.00%
- Percent Decrease in Aβ 40 in Rat Plasma (Aβ40; 6 h): −18.13%
- Percent Decrease in Aβ 40 in Rat Plasma (Aβ40; 12 h): −22.70%
- Percent Decrease in Aβ 40 in Rat Plasma (Aβ40; 24 h): −13.22%
- stability in fresh human plasma (in words) [1]: relatively stable
- % Remaining ([1]; fresh human plasma, 0 h incubation): 100%
- remaining at 3 h, 1 µM ([1]; fresh human plasma, 3 h incubation): 115%
- remaining at 8 h, 1 µM ([1]; fresh human plasma, 8 h incubation): 99.7%
- remaining at 24 h, 1 µM ([1]; fresh human plasma, 24 h incubation): 72%
- time after dosing at which detectable in CSF ([2]; 10 mg/kg IV and SC): ≤ 2 h
- CSF concentration, Mean IV ([2]; 0 hr): 0
- CSF concentration, Mean IV ([2]; 0.5 hr): 42.4
- CSF concentration, Mean IV ([2]; 1 hr): 14.2
- CSF concentration, Mean IV ([2]; 2 hr): 4.89
- CSF concentration, Mean IV ([2]; 4 hr): 0
- CSF concentration, Mean IV ([2]; 8 hr): 0
- CSF concentration, Mean IV ([2]; 12 hr): 0
- CSF concentration, Mean IV ([2]; 24 hr): 0
- CSF concentration, Mean SC ([2]; 0 hr): 0
- CSF concentration, Mean SC ([2]; 0.5 hr): 79.4
- CSF concentration, Mean SC ([2]; 1 hr): 19.3
- CSF concentration, Mean SC ([2]; 2 hr): 23.3
- CSF concentration, Mean SC ([2]; 4 hr): 0
- CSF concentration, Mean SC ([2]; 8 hr): 0
- CSF concentration, Mean SC ([2]; 12 hr): 0
- CSF concentration, Mean SC ([2]; 24 hr): 0
- delivery to the APPTg mouse brain (in words) [3]: in sufficient amounts to reduce Aß in the brain
- production of Aβ in retinal cells in the presence of the peptide (in words) (Aβ): reduced
- time after dosing at which detectable in plasma ([4]; 10 mg/kg IV and SC): ≤ 2 h
- plasma concentration ([4]; 10 mg/kg IV, 0 hr (pre-dose)): BQL
- plasma concentration ([4]; 10 mg/kg IV, 0.167 hr, 10 mg/kg): 9,770 and 12,800 ^a and 11,800 ^a
- plasma concentration ([4]; 10 mg/kg IV, 0.5 hr, 10 mg/kg, in ng/mL (unit assumed)): 2,340 and 2,080 and 2,710
- plasma concentration ([4]; 10 mg/kg IV, 1 hr, 10 mg/kg, in ng/mL (unit assumed)): 257 and 219 and 189
- plasma concentration ([4]; 10 mg/kg IV, 2 hr, 10 mg/kg, in ng/mL (unit assumed)): 26.3 and 22.7 and 18.9
- plasma concentration ([4]; 10 mg/kg IV, 4 hr, 10 mg/kg): 3.23 ^b and 3.18 ^b and 2.89 ^b
- plasma concentration ([4]; 10 mg/kg IV, 6 hr, 10 mg/kg): 1.07 ^b and 0.794 ^b
- plasma concentration ([4]; 10 mg/kg IV, 8 hr): BQL
- plasma concentration ([4]; 10 mg/kg IV, 12 hr): BQL
- plasma concentration ([4]; 10 mg/kg IV, 24 hr): BQL
- plasma concentration ([4]; 10 mg/kg SC, 0 hr (pre-dose)): BQL
- plasma concentration ([4]; 10 mg/kg SC, 0.167 hr, 10 mg/kg): 5,610 and 14,400 ^a and 11,900 ^a
- plasma concentration ([4]; 10 mg/kg SC, 0.5 hr, 10 mg/kg, in ng/mL (unit assumed)): 3,030 and 7,010 and 7,250
- plasma concentration ([4]; 10 mg/kg SC, 1 hr, 10 mg/kg, in ng/mL (unit assumed)): 670 and 1,300 and 1,970
- plasma concentration ([4]; 10 mg/kg SC, 2 hr, 10 mg/kg, in ng/mL (unit assumed)): 105 and 191 and 245
- plasma concentration ([4]; 10 mg/kg SC, 4 hr, 10 mg/kg): 5.44 ^b and 9.41 ^b and 20.7
- plasma concentration ([4]; 10 mg/kg SC, 6 hr, 10 mg/kg): 1.18 ^b and 4.35 ^b and 9.33 ^b
- plasma concentration ([4]; 10 mg/kg SC, 8 hr, 10 mg/kg): BQL and 1.32 ^b and 1.51 ^b
- plasma concentration ([4]; 10 mg/kg SC, 12 hr, 10 mg/kg): BQL (2×) and 0.900 ^b
- plasma concentration ([4]; 10 mg/kg SC, 24 hr): BQL
